Results taken from US8263738B2, “Estrogen receptors and methods of use” (Creighton University, priority 2004, dated 2012).
Blank lines part the entries; values can stand above or below the compound they belong to.

How the values were obtained:
ER-α36 transfected cells = conditions: for block of E2β-stimulated cell growth by anti-estrogens: 10 nM anti-estrogen with E2β; for block of E2β-stimulated cell growth by anti-estrogens / growth of ER-α36 transfected cells, anti-estrogen alone: 48 hours; for growth of ER-α36 transfected cells, anti-estrogen alone: 10 nM
[1] = tested on: control cells transfected with empty vector; experiment: GAL-Elk / 5×Gal4-LUC luciferase reporter in control cells transfected with empty vector; conditions: E2β
[2] = tested on: control 293 cells transfected with empty expression vector; experiment: Western blot of ERK1/2 phosphorylation in control 293 cells transfected with empty vector; type: cell-based, human
Experimental: (§1) Cell culture, establishment of stable cell lines and membrane-labeling with E2-BSA-FITC. MCF10A cells were obtained from Karmanos Cancer Institute at Detroit, Mich., and human embryonic kidney 293 cells, and all breast cancer cells were obtained from ATCC. All cells were maintained at 37° C. in a 5% CO2 atmosphere in appropriate tissue culture medium. […] The ER-α36 expression vector was constructed by cloning a 1.1-kb EcoRI-BamHI cDNA fragment of ER-α36 from pBS-ER-α36 into the EcoRI and BamHI sites of mammalian expression vector pCB6+. Empty vector was also transfected into cells to serve as controls. Forty-eight hours after transfection, the cells were replated and selected with 500 μg/ml of G418 (Invitrogen) for two weeks. The resulting uncloned population of G418-resistant cells was expanded to generate cells used for further analysis.
(§2) Western blot analysis, indirect immunofluorescence and antibodies. For Western blot analysis, cells were disrupted with RIPA buffer, boiled in gel loading buffer and separated on a 10% SDS-PAGE gel. After electrophoresis, the proteins were transferred to a PVDF membrane (Millipore). The filter was probed with various antibodies and visualized with appropriate HRP-conjugated secondary antibodies (Santa Cruz Biotechnology) and ECL reagents (Perkin Elmer Life Sciences).
Antibody against ERK1/2 (K-23) was purchased from Santa Cruz Biotechnology. […]

[3] = tested on: ER-α66 negative MDA-MB-231 cells; experiment: Western blot of ERK1/2 phosphorylation in MDA-MB-231 cells; type: cell-based, human; conditions: 1 nM E2β, serum starved cells, different time periods
Excerpt: For Western blot analysis, cells were disrupted with RIPA buffer, boiled in gel loading buffer and separated on a 10% SDS-PAGE gel. After electrophoresis, the proteins were transferred to a PVDF membrane (Millipore). The filter was probed with antibody against ERK1/2 (K-23) (Santa Cruz Biotechnology), or antibody used against the phosphorylated form of ERK1/2 (Cell Signaling Technology).

[4] = tested on: ER-α66 negative MDA-MB-231 cells; experiment: Anchorage-independent growth in soft agar; type: cell-based, human; conditions: three weeks
Excerpt: The cells were then overlaid onto a 0.7% (wt/vol) agar containing phenol-red free DMEM/F12 medium plus 10% E2-free fetal calf serum in five replica 60 mm dishes. […] After three weeks, colonies were scored using an inverted microscope.

[5] = tested on: control cells transfected with empty expression vector; experiment: MTT proliferation assay, control cells transfected with empty expression vector; type: cell-based, human; conditions: E2β
ER-α36 [6] = target: T1, ER-α36 (Homo sapiens, UniProt P03372, I452L); experiment: Western blot of MAPK pathway activation (ERK1/2, Mek1 phosphorylation) in ER-α36 transfected HEK293 cells; type: cell-based
T1 construct: expressed in transfected cells; transient transfectants for A11
T1 sequence (P03372 1-310 isoform P03372-4 I279L): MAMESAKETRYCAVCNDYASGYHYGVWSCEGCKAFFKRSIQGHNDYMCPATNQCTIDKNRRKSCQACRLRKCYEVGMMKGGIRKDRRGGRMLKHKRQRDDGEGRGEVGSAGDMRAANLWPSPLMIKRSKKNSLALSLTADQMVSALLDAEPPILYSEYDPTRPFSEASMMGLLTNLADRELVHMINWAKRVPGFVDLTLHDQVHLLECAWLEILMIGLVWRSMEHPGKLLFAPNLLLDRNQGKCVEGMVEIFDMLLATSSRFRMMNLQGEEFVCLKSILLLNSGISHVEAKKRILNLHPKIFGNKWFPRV
Experimental: as §1, §2
(§3) Antibody against ERK1/2 (K-23) was purchased from Santa Cruz Biotechnology. Antibodies used to analyze activation of the MAP kinase pathway included the phosphorylated forms of Mek1 and ERK1/2, and were purchased from Cell Signaling Technology. Rat anti-ER-α antibody (H222) was purchased from Research Diagnostic Inc. Antibodies of COPB (Y-20), mSin3A (AK-11), and 5′ nucleotidase (H-300) were purchased from Santa Cruz biotechnology Inc. D4-GDI (clone 97A1015) was obtained from Upstate Biotechnology.

ER-α36 [7] = target: T2, ER-α36 (Homo sapiens, UniProt P03372); experiment: as above; type: cell-based; conditions: treated for 10 minutes
T2 construct: expressed in transfected cells; transient transfectants for A11
T2 sequence (P03372 1-310 isoform P03372-4 I279L): T1 sequence (P03372 1-310 isoform P03372-4 I279L)
Experimental: as §1, §2, §3

MDA-MB-231 cells = conditions: high concentration of Tamoxifen; cited from earlier work
[8] = tested on: neurons of ER-α gene knockout (aERKO) mice; conditions: cited from earlier work

Compound: N#CC(=C(/N)Sc1ccccc1N)/C(C#N)=C(/N)Sc1ccccc1N [UO126]
- inhibition of E2β-stimulated cell growth (ER-α36 transfected cells; 7.2 nM UO126, 48 hours): strongly inhibited

Compound: C[C@]12CC[C@@H]3c4ccc(O)cc4CC[C@H]3[C@@H]1CC[C@@H]2O [E2β, 17β-estradiol]
- transcription activity of the Elk/Gal4 fusion protein in control cells [1]: had no effect
- increase in the phosphorylation of ERK1/2 in control cells ([2]; E2β 10 nM, empty vector cells): not in the control cells
- phosphorylation of ERK1/2 in MDA-MB-231 cells [3]: induced rapid phosphorylation
- anchorage-independent growth in soft agar ([4]; 1 nM E2β): strongly promoted
- growth of control cells [5]: had no effect

- block of ERK1/2 activation mediated by ER-α36 by anti-estrogens (ER-α36 [6]): did not block
- effect on ERK1/2 activation compared to E2β alone (ER-α36 [6]): even stronger
Compound: 4OH-Tamoxifen
- block of E2β-stimulated cell growth by anti-estrogens (ER-α36 transfected cells): did not block
- growth of ER-α36 transfected cells, anti-estrogen alone (ER-α36 transfected cells): strongly stimulated growth

Compound: C[C@]12CC[C@@H]3c4ccc(O)cc4CC[C@H]3[C@@H]1[C@@H](O)[C@@H](O)[C@@H]2O [E4, estetrol]
- activation of ERK1/2 phosphorylation by estrogens (ER-α36 [7]): activated ERK1/2 phosphorylation at a very similar level

Compound: CC/C(=C(\c1ccccc1)c1ccc(OCCN(C)C)cc1)c1ccccc1 [Tamoxifen]
- block of E2β-stimulated cell growth by anti-estrogens (ER-α36 transfected cells): did not block
- growth of ER-α36 transfected cells, anti-estrogen alone (ER-α36 transfected cells): strongly stimulated growth
- ERK1/2 activation by Tamoxifen in control cells ([2]; same concentration (1 μM), empty vector 293 cells): had no effect
- apoptosis in MDA-MB-231 cells (MDA-MB-231 cells): induce apoptosis
- effect of Tamoxifen on E2β-promoted growth in soft agar ([4]; 1 nM E2β combined with 1 nM tamoxifen): inhibits the effect of E2β

Compound: C[C@]12CC[C@@H]3c4ccc(O)cc4C[C@@H](CCCCCCCCC[S+]([O-])CCCC(F)(F)C(F)(F)F)[C@H]3[C@@H]1CC[C@@H]2O (some centres unmarked) [ICI-182, 780]
- block of E2β-mediated rapid actions in neurons [8]: not blocked
